Laboratory results published in US7772227B2, “Tricyclic 1-[(indol-3-yl)carbonyl]piperazine derivatives as cannabinoid CB1 receptor agonists” (N.V. Organon, priority 2003, dated 2010).
Where a name gives a salt, the structure may show the parent alone. Read-outs that look alike come from different tables or passages of the source.

Assays:
human CB1 receptor = molecular target: T1, human CB1 receptor (Homo sapiens, UniProt P21554); assay: Efficacy and potency at the human CB1 receptor expressed in CHO cells (luciferase reporter gene); type: cell-based; settings: 5 h incubation at 37° C.
T1 construct: expressed in transfected cells; host or cells: Chinese Hamster Ovary (CHO) cells
T1 sequence (P21554 whole entry): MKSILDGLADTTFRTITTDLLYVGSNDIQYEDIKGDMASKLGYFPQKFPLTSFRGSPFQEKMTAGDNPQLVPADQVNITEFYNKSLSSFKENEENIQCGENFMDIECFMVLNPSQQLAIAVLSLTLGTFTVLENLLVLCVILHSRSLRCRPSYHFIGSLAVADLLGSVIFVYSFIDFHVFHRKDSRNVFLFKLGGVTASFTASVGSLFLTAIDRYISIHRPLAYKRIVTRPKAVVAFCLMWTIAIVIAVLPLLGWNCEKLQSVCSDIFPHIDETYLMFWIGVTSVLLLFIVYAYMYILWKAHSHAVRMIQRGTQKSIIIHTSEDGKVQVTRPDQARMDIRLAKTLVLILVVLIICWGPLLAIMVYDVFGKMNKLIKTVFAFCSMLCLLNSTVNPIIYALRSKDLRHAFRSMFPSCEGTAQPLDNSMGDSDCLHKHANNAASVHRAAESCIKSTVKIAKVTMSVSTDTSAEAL
Description: Methods to determine receptor binding as well as in vitro biological activity of cannabinoid receptor modulators are well known in the art. In general, expressed receptor is contacted with the compound to be tested and binding or stimulation or inhibition of a functional response is measured.
Chinese Hamster Ovary (CHO) cells expressing the human CB1 receptor and a luciferase reporter gene were suspended in phenol red/serum free DMEM/F-12 nut mix containing penicillin/streptomycin (50 U/50 μg/ml) and fungizone (1 μg/ml) and seeded into 96 well plates at a density of 3×10^4 cells per well (100 μl final volume). Cells were incubated overnight (approx. 18 h at 37° C., 5% CO2/95% air) prior to assay.
The test compound (10 mM solution in dimethylsulfoxide) was diluted in F12 Nut Mix to give a range of stock solutions from 0.11 mM to 0.11 nM. The stock solutions (10 μl) were added directly to the relevant wells. The plates were incubated at 37° C. for 5 h to allow agonist-induced expression of the luciferase enzyme. Under subdued light, LucLite substrate (Packard; reconstituted as per manufacturer's instructions; 100 μl) was added to each well. Plates were covered with Top Seal and then incubated at room temperature for 5 minutes before counting on the Packard TopCount (single photon counting, 0.01 minute count time, 5 minute count delay).
A “best-fit” curve was fitted by a minimum sum of squares method to the plot of counts per second (CPS) against compound concentration (M) to obtain an EC50 value.

mice = assay: Tail flick latency in mice; type: in vivo; settings: Mus musculus, iv, administered intravenously, ED50 calculated at Tmax, read-out: ED50 (increase of tail flick latency)
Description: Mice were trained to sit still in a tail flick apparatus (Ugo Basile, Italy) whilst tail flick latency was measured. The tail was exposed to a focused beam of radiant heat at a point approximately 2.5 cm from the tip. Tail flick latency was defined as the interval between the appliance of the thermal stimulus and withdrawal of the tail. A 12 second cut-off was employed to prevent tissue damage. Four groups of eight mice were treated with vehicle or one of three doses of the test compound, administered intravenously (vehicle: saline 9 g/l; injection volume 10 ml/kg). Tail flick latency was measured before administration of the test compound and at regular intervals (typically 20, 40 and 60 minutes) after compound administration. The ED50 was calculated at Tmax.

[1] = CHO cells expressing human CB1 receptor and luciferase reporter gene, read-out: pEC50 (converted)
[2] = CHO cells expressing human CB1 receptor and luciferase reporter gene

With CCN1CCN(C(=O)c2cn3c4c(cccc24)CCC3C2CCCCC2)CC1 (single isomer, unassigned; (+)) [Example 13, (+)-4-Cyclohexyl-5,6-dihydro-1-(4-ethylpiperazin-1-ylcarbonyl)-4H-pyrrolo[3,2,1-ij]-quinoline hydrochloride salt] as the molecule, how does the EC50 (human CB1 receptor; [1]) read?
The EC50 was 50.1 nM.

How did the ED50 (mice) turn out when CN1CCN(C(=O)c2cn3c4c(cccc24)CCC3C2CCCCC2)CC1 (single isomer, unassigned; (+)) [Example 14, (+)-(4-Cyclohexyl-5,6-dihydro-1-(4-methylpiperazin-1-ylcarbonyl)-4H-pyrrolo[3,2,1-ij]-quinoline hydrochloride salt] was run?
Its ED50 is under 5 µmol/kg.

And the EC50 (human CB1 receptor; [1])?
The EC50 was 79.4 nM.

How did the EC50 (human CB1 receptor; [1]) turn out when CCN1CCN(C(=O)c2cn3c4c(cccc24)CCC3C2CCCC2)CC1 (single isomer, unassigned; (-)) [Example 12B, (−)-4-Cylclopentyl-5,6-dihydro-1-(4-ethylpiperazin-1-ylcarbonyl)-4H-pyrrolo[3,2,1-ij]quinoline hydrochloride salt] was run?
Its EC50 is 39.8 nM.

What does the source list for CCN1CCN(C(=O)c2cn3c4c(cccc24)CCC3C2CCCCC2)CC1 (single isomer, unassigned; (-)) [Example 15, (−)-(4-Cyclohexyl-5,6-dihydro-1-(4-ethylpiperazin-1-ylcarbonyl)-4H-pyrrolo[3,2,1-ij]quinoline hydrochloride salt]?
ED50 (mice): < 5 µmol/kg; EC50 (human CB1 receptor; [1]): 31.6 nM

With CN1CCN(C(=O)c2cn3c4c(cccc24)CCC3C2CCCCC2)CC1 (single isomer, unassigned; (-)) [Example 16, (−)-(4-Cyclohexyl-5,6-dihydro-1-(4-methylpiperazin-1-ylcarbonyl)-4H-pyrrolo[3,2,1-ij]-quinoline hydrochloride salt] as the molecule, how does the EC50 (human CB1 receptor; [1]) read?
Its EC50 is 25.1 nM.

How did the pEC50 (human CB1 receptor; [2]) turn out when CCN1CCN(C(=O)c2cn3c4c(cccc24)OC[C@H]3C2CCCCC2)CC1.Cl [Example 1, (R)-3-Cyclohexyl-2,3-dihydro-6-(4-ethylpiperazin-1-ylcarbonyl)pyrrolo[1,2,3-de]-1,4-benzoxazine hydrochloride salt] was run?
Its pEC50 is 7.5.

What does the source list for O=C(c1cn2c3c(cccc13)OC[C@H]2C1CCCCC1)N1CCN2CCCC[C@H]2C1 [Example 2, (R)-3-Cyclohexyl-2,3-dihydro-6-[(S)-octahydro-2H-pyrido[1,2-a]pyrazin-2-ylcarbonyl]-pyrrolo[1,2,3-de]-1,4-benzoxazine hydrochloride salt]?
ED50 (mice): < 5 µmol/kg; EC50 (human CB1 receptor; pEC50, CHO cells expressing human CB1 receptor and luciferase reporter gene): 10 nM

Which ED50 (mice) does the source give for C[C@H]1CN(C(=O)c2cn3c4c(cccc24)OC[C@H]3C2CCCCC2)CCN1C.Cl [Example 4, (R)-3-Cyclohexyl-2,3-dihydro-6-[(S)-3,4-dimethylpiperazin-1-ylcarbonyl]pyrrolo[1,2,3-de]-1,4-benzoxazine hydrochloride salt] here?
Its ED50 is under 5 µmol/kg.

What about the pEC50 (human CB1 receptor; [2]) of the same molecule?
Its pEC50 is 7.8.

For CN1CCN(C(=O)c2cn3c4c(cccc24)OC[C@H]3C2CCCCC2)CC1.Cl [Example 5C, (R)-3-Cyclohexyl-2,3-dihydro-6-[4-methylpirerazin-1-ylcarbonyl]pyrrolo[1,2,3-de]-1,4-benzoxazine hydrochloride salt], which pEC50 (human CB1 receptor; [2]) is on record?
Its pEC50 is 7.0.

C[C@@H]1CN(C(=O)c2cn3c4c(cccc24)OC[C@H]3C2CCCCC2)C[C@H](C)N1C.Cl [Example 7, (R)-3-Cyclohexyl-2,3-dihydro-6-[(cis)-3,4,5-trimethylpiperazin-1-ylcarbonyl]pyrrolo[1,2,3-de]-1,4-benzoxazine hydrochloride salt] was tested. Which pEC50 (human CB1 receptor; [2]) did it give?
The pEC50 was 8.2.

CCN1[C@H](C)CN(C(=O)c2cn3c4c(cccc24)OC[C@H]3C2CCCCC2)C[C@@H]1C.Cl [Example 8, (R)-3-Cyclohexyl-2,3-dihydro-6-[(cis)-3,5-dimethyl-4-ethylpiperazin-1-ylcarbonyl]-pyrrolo[1,2,3-de]-1,4-benzoxazine hydrochloride salt] was tested. Which pEC50 (human CB1 receptor; [2]) did it give?
Its pEC50 is 8.4.

How did the pEC50 (human CB1 receptor; [2]) turn out when C[C@@H]1CN(C(=O)c2cn3c4c(cccc24)OC[C@H]3C2CCCCC2)C[C@H](C)N1CCO.Cl [Example 9, (R)-3-Cyclohexyl-2,3-dihydro-6-[(cis)-3,5-dimethyl-4-(2-hydroxyethyl)piperazin-1-ylcarbonyl]pyrrolo[1,2,3-de]-1,4-benzoxazine hydrochloride salt] was run?
Its pEC50 is 8.2.

How did the pEC50 (human CB1 receptor; [2]) turn out when COCCN1[C@H](C)CN(C(=O)c2cn3c4c(cccc24)OC[C@H]3C2CCCCC2)C[C@@H]1C.Cl [Example 10, (R)-3-Cyclohexyl-2,3-dihydro-6-[(cis)-3,5-dimethyl-4-(2-methoxyethyl)piperazin-1-yl-carbonyl]pyrrolo[1,2,3-de]-1,4-benzoxazine hydrochloride salt] was run?
The pEC50 was 8.3.
